The target of one data set is T1, hERG product (Homo sapiens, UniProt Q12809).
T1 construct: host or cells: HEK-293S cells (membranes)
Kind of data set: Radioligand binding assay for [3H]-dofetilide binding to the hERG product expressed in HEK-293S cells. The settings on record: displacement of 3H-UK068798 (~5 nM) from membranes of hERG expressing HEK-293S cells; Cheng-Prusoff. As to the method: (§1) A Radioligand Binding Assay for [^3H]-dofetilide Binding to the hERG Product Expressed in HEK-293S Cells
(§2) hERG expressing HEK-293S cells were obtained from University of Wisconsin and membranes prepared according to standard protocols. Membranes were diluted in assay buffer, consisting of Tris-HCl 50 mM; KCl 10 mM; MgCl2 1 mM pH 7.4 with NaOH, and were pre-coupled with 120 mg/ml YSi polylysine Scintillation Proximity Beads in a ratio of 16 ug protein to 1 mg bead for 2 hours at 4° C. The coupled beads were separated from uncoupled protein by centrifugation and re-suspended in cold assay buffer to give a working solution of 6.25 mgs/ml. 20 μl of test compound was added to a 96-well microtiteplate at a final assay top concentration of 10 μM in serial ½ log dilutions (1 in 3.162) to generate at 10 point IC50 curve. 20 μl of ^3H-UK068798 (Dofetilide, Amersham; specific activity 78-83 Ci/mmole) was placed in each well of a 96 well plate to a final assay concentration of ˜5 nM. To this, 160 μl of bead/membrane mixture was added. The assay plates were shaken for 1 hour at room temperature and incubated for a further 30 minutes at room temperature for beads to settle. The plates were then read on a Packard TopCount NXT. The percentage displacement of ^3H-UK068798 was calculated using 0% as defined by 1% DMSO vehicle in well and 100% as defined by 10 μM UK-068798. Dose response curves were fitted using a four parameter logistical fit and the Ki value was derived using the Cheng-Prusoff equation (Cheng, Y. C. & Prusoff, W. H. (1973). Biochem. Pharmacol., 22, 3099-3108. )

Data set [1] addresses T2, human histamine H3 receptor (Homo sapiens, UniProt Q9Y5N1).
T2 construct: expressed in transfected cells; host or cells: HEK-293 cells expressing a CRE β-lactamase reporter gene
In words: H3 cell based functional assay (cAMP through β-lactamase reporter gene activity). The settings on record: functional Ki from antagonist IC50 by Cheng-Prussoff; HEK-293 cells, 10 μM forskolin, 1 nM imetit. As to the method:
H3 Cell Based Functional Assay Compounds were evaluated using a cell based functional assay measuring cAMP through β-lactamase reporter gene activity. A stable cell line was generated from HEK-293 cells expressing a CRE β-lactamase reporter gene and transfected with human histamine H3 receptor cDNA. Cells were seeded at a density of 500,000 cells/ml, and grown overnight in MEM (Invitrogen) supplemented with 1% dialysed FBS (Sigma), 2 mM glutamine (Sigma), 1 mM sodium pyruvate (Sigma), 0.1 mM non essential amino acids (Invitrogen) and 25 mM HEPES (Sigma) in poly D lysine coated 384 well plates (BD Biosciences).
In general terms: In a reporter assay the amount or activity of a reporter protein is the signal.

In the next data set the target is T3, hERG (Homo sapiens, UniProt Q12809).
T3 construct: host or cells: HEK-293S cells (membranes)
T3 sequence (Q12809 whole entry): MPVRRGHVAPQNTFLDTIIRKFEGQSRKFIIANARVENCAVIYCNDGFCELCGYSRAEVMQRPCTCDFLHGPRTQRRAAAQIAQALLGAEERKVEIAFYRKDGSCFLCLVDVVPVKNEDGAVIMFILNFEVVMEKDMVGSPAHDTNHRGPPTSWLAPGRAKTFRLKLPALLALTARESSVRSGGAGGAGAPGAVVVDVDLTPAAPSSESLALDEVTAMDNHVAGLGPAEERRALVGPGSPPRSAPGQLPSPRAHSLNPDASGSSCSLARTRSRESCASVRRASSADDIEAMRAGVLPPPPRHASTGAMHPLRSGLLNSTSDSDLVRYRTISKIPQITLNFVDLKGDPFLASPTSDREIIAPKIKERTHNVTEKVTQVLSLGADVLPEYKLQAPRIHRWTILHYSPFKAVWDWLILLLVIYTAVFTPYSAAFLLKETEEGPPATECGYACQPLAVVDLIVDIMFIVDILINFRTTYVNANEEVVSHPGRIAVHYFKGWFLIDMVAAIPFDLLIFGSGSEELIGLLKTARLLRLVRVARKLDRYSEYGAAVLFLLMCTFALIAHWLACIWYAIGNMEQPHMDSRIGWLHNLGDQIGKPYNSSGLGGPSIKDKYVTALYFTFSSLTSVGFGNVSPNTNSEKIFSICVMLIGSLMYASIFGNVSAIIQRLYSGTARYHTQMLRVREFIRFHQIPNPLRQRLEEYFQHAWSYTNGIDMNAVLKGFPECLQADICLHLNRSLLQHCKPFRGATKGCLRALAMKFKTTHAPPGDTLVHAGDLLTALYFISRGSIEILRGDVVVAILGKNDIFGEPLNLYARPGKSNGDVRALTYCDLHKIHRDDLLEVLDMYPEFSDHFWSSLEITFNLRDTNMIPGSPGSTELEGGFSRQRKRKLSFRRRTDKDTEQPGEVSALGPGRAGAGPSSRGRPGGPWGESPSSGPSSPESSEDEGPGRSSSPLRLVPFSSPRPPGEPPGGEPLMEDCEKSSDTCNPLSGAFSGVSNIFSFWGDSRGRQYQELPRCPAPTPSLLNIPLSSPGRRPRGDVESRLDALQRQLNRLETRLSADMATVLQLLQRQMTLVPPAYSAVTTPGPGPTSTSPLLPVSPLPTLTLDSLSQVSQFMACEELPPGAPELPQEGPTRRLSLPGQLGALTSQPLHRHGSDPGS
In words: Radioligand binding assay for [3H]-dofetilide binding to the hERG product expressed in HEK-293S cells. The settings on record: human, membranes of HEK-293S cells expressing hERG, pH 7.4, probe [3H]-dofetilide (3H-UK068798); displacement of 3H-UK068798 (~5 nM) from membranes of hERG expressing HEK-293S cells; Cheng-Prusoff. The method, then: as §1, §2
(In general: Block of hERG is tested as a sign of cardiac risk.)

T2 sequence (Q9Y5N1 whole entry): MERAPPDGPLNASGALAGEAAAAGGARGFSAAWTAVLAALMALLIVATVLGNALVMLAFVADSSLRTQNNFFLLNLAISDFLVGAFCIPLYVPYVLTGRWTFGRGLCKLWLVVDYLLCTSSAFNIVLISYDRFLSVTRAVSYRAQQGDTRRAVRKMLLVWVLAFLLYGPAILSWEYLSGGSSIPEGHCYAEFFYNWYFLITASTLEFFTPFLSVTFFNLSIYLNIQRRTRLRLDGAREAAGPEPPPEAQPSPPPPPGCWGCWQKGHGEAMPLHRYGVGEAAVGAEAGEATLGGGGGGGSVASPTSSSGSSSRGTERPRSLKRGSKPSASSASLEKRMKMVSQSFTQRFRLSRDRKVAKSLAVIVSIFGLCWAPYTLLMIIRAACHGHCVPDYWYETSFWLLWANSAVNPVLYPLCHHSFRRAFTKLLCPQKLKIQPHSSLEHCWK
T1 sequence (Q12809 whole entry): as the sequence (Q12809 whole entry) above

What is called Ki is a measure of affinity in units of concentration, obtained from inhibition or displacement. Low readings indicate tighter binding, high ones weaker binding. `C[C@@H]1CCCN1CCCOc1ccc2c(n1)CCN(c1cccnn1)C2` [Example 22, 2-{3-[(2R)-2-methylpyrrolidin-1-yl]propoxy}-6-pyridazin-3-yl-5,6,7,8-tetrahydro-1,6-naphthyridine]: the Ki at hERG product stood at 51.8 µM; in data set [1] it was 0.00916 µM.
Regarding `C[C@@H]1CCCN1CCCOc1ccc2c(n1)CCN(c1cnccn1)C2` [Example 23, 2-{3-[(2R)-2-methylpyrrolidin-1-yl]propoxy}-6-pyrazin-2-yl-5,6,7,8-tetrahydro-1,6-naphthyridine], the Ki was determined as 11.5 µM on hERG product and 0.0103 µM in data set [1].
Consider `Cc1ccc(N2CCc3nc(OCCCN4CCC[C@H]4C)ccc3C2)cn1` [Example 24, 6-(6-methylpyridin-3-yl)-2-{3-[(2R)-2-methylpyrrolidin-1-yl]propoxy}-5,6,7,8-tetrahydro-1,6-naphthyridine], for which the results for the Ki (at hERG product; in data set [1]) were 35.6 µM and 0.00821 µM, respectively.
In the case of `C[C@H]1CCCN1CCCOc1ccc2c(n1)CCN(c1cccnn1)C2` [Example 25, 2-{3-[(2S)-2-methylpyrrolidin-1-yl]propoxy}-6-pyridazin-3-yl-5,6,7,8-tetrahydro-1,6-naphthyridine], the Ki on hERG product amounted to 55.9 µM; in data set [1], 0.00556 µM.
With `C[C@H]1CCCN1CCCOc1ccc2c(n1)CCN(c1cnccn1)C2` [Example 26, 2-{3-[(2S)-2-methylpyrrolidin-1-yl]propoxy}-6-pyrazin-2-yl-5,6,7,8-tetrahydro-1,6-naphthyridine], the results for the Ki (at hERG product; in data set [1]) were 9.88 µM and 0.00524 µM, respectively.
Take `c1cnnc(N2CCc3nc(OCCCN4CCCCC4)ccc3C2)c1` [Example 29, 2-(3-piperidin-1-ylpropoxy)-6-pyridazin-3-yl-5,6,7,8-tetrahydro-1,6-naphthyridine]: the values for the Ki (at hERG product; in data set [1]) were 64.4 µM and 0.0198 µM, respectively.
In the case of `CNC(=O)c1ccc(N2CCc3nc(OCCCN4CCCC4)ccc3C2)nc1` [Example 44, N-methyl-6-[2-(3-pyrrolidin-1-ylpropoxy)-7,8-dihydro-1,6-naphthyridin-6(5H)-yl]nicotinamide], the Ki came to 85.8 µM on hERG product and 0.0181 µM in data set [1].
In the case of `NC(=O)c1ccc(N2CCc3nc(OCCCN4CCCCC4)ccc3C2)nc1` [Example 48, 6-[2-(3-piperidin-1-ylpropoxy)-7,8-dihydro-1,6-naphthyridin-6(5H)-yl]nicotinamide], the affinity at hERG corresponds to a Ki at 1.5 h of 100 µM. Besides, the Ki in data set [1] came to 0.0145 µM.
On to `CNC(=O)c1ccc(N2CCc3nc(OCCCN4CCC[C@H]4C)ccc3C2)cn1` [Example 64, N-Methyl-5-[2-{3-[(2R)-2-methylpyrrolidin-1-yl]propoxy}-7,8-dihydro-1,6-naphthyridin-6(5H)-yl]pyridine-2-carboxamide], for which the Ki is 55.5 µM at hERG product and 0.00467 µM in data set [1].
Regarding `CNC(=O)c1ccc(N2CCc3nc(OCCCN4CCCC4)ccc3C2)cn1` [Example 65, N-Methyl-5-[2-(3-pyrrolidin-1-ylpropoxy)-7,8-dihydro-1,6-naphthyridin-6(5H)-yl]pyridine-2-carboxamide], the Ki at hERG product was 46.1 µM; in data set [1] it was 0.0163 µM.
Take `CN(C)C(=O)c1ccc(N2CCc3nc(OCCCN4CCCC4)ccc3C2)cn1` [Example 67, N,N-Dimethyl-5-[2-(3-pyrrolidin-1-ylpropoxy)-7,8-dihydro-1,6-naphthyridin-6(5H)-yl]pyridine-2-carboxamide]: affinity at hERG was put at a Ki at 1.5 h of 100 µM. In data set [1], the affinity corresponds to a Ki of 0.0197 µM.
The matching figures for `CNC(=O)c1ccc(N2CCc3nc(OCCCN4CCC[C@H]4C)ccc3C2)nc1` [Example 68, N-Methyl-6-[2-{3-[(2R)-2-methylpyrrolidin-1-yl]propoxy}-7,8-dihydro-1,6-naphthyridin-6(5H)-yl]nicotinamide]: 100 µM and 0.00828 µM.
As to `CNC(=O)c1ccc(N2CCc3nc(OC4CCN(C(C)C)CC4)ccc3C2)nc1` [Example 70, 6-[2-[(1-Isopropylpiperidin4-yl)oxy]-7,8-dihydro-1,6-naphthyridin-6(5H)-yl]-N-methylnicotinamide], the Ki at hERG product was found to be 94.4 µM; in data set [1], 0.00632 µM.
`CC(C)N1CCC(Oc2ccc3c(n2)CCN(c2cnccn2)C3)CC1` [Example 71, 2-[(1-Isopropylpiperidin-4-yl)oxy]-6-pyrazin-2-yl-5,6,7,8-tetrahydro-1,6-naphthyridine]: the Ki was found to be 22.9 µM at hERG product and 0.0137 µM in data set [1].
Take `Cc1ccc(N2CCc3nc(OC4CCN(C(C)C)CC4)ccc3C2)cn1` [Example 72, 2-[(1-isoproplpiperidin-4-yl)oxy]-6-(6-methylpyridin-3-yl)-5,6,7,8-tetrahydro-1,6-naphthyridine]: the results for the Ki (at hERG product; in data set [1]) were 13.7 µM and 0.00486 µM, respectively.

For the origin of these results see US7557121B2, “Tetrahydronaphthyridine derivatives” (Pfizer Inc, priority 2004, dated 2009).
